Measured values: PubChem BioAssay AID2060912 (Molecular Pharmacology Branch, DTP, NCI, 2025)

Test system: HUVEC/MSC spheroids viability
Experiment: Human HUVEC/MSC cell line growth inhibition [KRAS2];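 for viability, T/C: percent of DMSO vehicle control luminescence so 100% = untreated viability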
Details: for IC50: curve of first compound; for viability, T/C: stronger effect = lower value
Procedure, shortened: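 The concentration series started at or near clinical Cmax (10 microM if not known) and fell in half-log increments, alone or in combination. Cells were stromal-only spheroids of pooled-donor HUVEC and hMSC (passage </=5), with different drug plates and layout from the tumor spheroid screens.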

In the case of `CC(=O)OC12COC1CC(O)C1(C)C(=O)C(O)C3=C(C)C(OC(=O)C(O)C(NC(=O)OC(C)(C)C)c4ccccc4)CC(O)(C(OC(=O)c4ccccc4)C21)C3(C)C` (configuration not stated) + C=CC(=O)N1CCN(c2nc(OCC3CCCN3C)nc3c2CCN(c2cccc4cccc(C)c24)C3)CC1CC#N, the IC50 (second compound 0.00949 µM) is reported as < 9.49 nM, the IC50 (second compound 0.03 µM) is reported as < 9.49 nM and the IC50 (second compound 0.0949 µM) is reported as < 9.49 nM. The IC50 (second compound 0.3 µM) was < 9.49 nM, the IC50 (second compound 0.949 µM) was < 9.49 nM and the IC50 (second compound 3 µM) was > 3000 nM. It also gave a viability, T/C (second compound 0.00949 µM, first compound 0.00949 µM) of 48.9%, a viability, T/C (second compound 0.00949 µM, first compound 0.03 µM) of 42.7% and a viability, T/C (second compound 0.00949 µM, first compound 0.0949 µM) of 47.8%. It also gave a viability, T/C (second compound 0.00949 µM, first compound 0.3 µM) of 47%, a viability, T/C (second compound 0.00949 µM, first compound 0.949 µM) of 47.8% and a viability, T/C (second compound 0.00949 µM, first compound 3 µM) of 58%. It also gave a viability, T/C (second compound 0.03 µM, first compound 0.00949 µM) of 44.7%, a viability, T/C (second compound 0.03 µM, first compound 0.03 µM) of 40.9% and a viability, T/C (second compound 0.03 µM, first compound 0.0949 µM) of 38%. For the same compound, the viability, T/C (second compound 0.03 µM, first compound 0.3 µM) was 48.1%, the viability, T/C (second compound 0.03 µM, first compound 0.949 µM) was 47.1% and the viability, T/C (second compound 0.03 µM, first compound 3 µM) was 49.4%. It also gave a viability, T/C (second compound 0.0949 µM, first compound 0.00949 µM) of 44.3%, a viability, T/C (second compound 0.0949 µM, first compound 0.03 µM) of 42.1% and a viability, T/C (second compound 0.0949 µM, first compound 0.0949 µM) of 41.6%. For the same compound, the viability, T/C (second compound 0.0949 µM, first compound 0.3 µM) was 40.4%, the viability, T/C (second compound 0.0949 µM, first compound 0.949 µM) was 45.1% and the viability, T/C (second compound 0.0949 µM, first compound 3 µM) was 48.3%. For the same compound, the viability, T/C (second compound 0.3 µM, first compound 0.00949 µM) was 40.4%, the viability, T/C (second compound 0.3 µM, first compound 0.03 µM) was 49.7% and the viability, T/C (second compound 0.3 µM, first compound 0.0949 µM) was 45%. The viability, T/C (second compound 0.3 µM, first compound 0.3 µM) was 34.3%, the viability, T/C (second compound 0.3 µM, first compound 0.949 µM) was 48.1% and the viability, T/C (second compound 0.3 µM, first compound 3 µM) was 55%. It also gave a viability, T/C (second compound 0.949 µM, first compound 0.00949 µM) of 44.7%, a viability, T/C (second compound 0.949 µM, first compound 0.03 µM) of 48.3% and a viability, T/C (second compound 0.949 µM, first compound 0.0949 µM) of 50.5%. The viability, T/C (second compound 0.949 µM, first compound 0.3 µM) was 44.5%, the viability, T/C (second compound 0.949 µM, first compound 0.949 µM) was 63.9% and the viability, T/C (second compound 0.949 µM, first compound 3 µM) was 51.5%. For the same compound, the viability, T/C (second compound 3 µM, first compound 0.00949 µM) was 82.6%, the viability, T/C (second compound 3 µM, first compound 0.03 µM) was 76.2% and the viability, T/C (second compound 3 µM, first compound 0.0949 µM) was 75.6%. The viability, T/C (second compound 3 µM, first compound 0.3 µM) was 62.6%, the viability, T/C (second compound 3 µM, first compound 0.949 µM) was 67.5% and the viability, T/C (second compound 3 µM, first compound 3 µM) was 90.5%.
